Source: patent US8889874B2, “Imidazolone-chalcone derivatives as potential anticancer agent and process for the preparation thereof” (Council of Scientific and Industrial Research, priority 2010, dated 2014)

Assays:
Assay type in all cases: cell-based, human
[1] = system: Melanoma cancer cell lines; assay: NCI anticancer screen, SRB assay, panel summary; conditions: Melanoma panel
Outline: (§1)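 Compounds were tested across fifty three human cancer cell lines from nine tumour types. Each line got a dose-response curve of at least five concentrations at 10-fold dilutions, with continuous drug exposure and sulforhodamine B protein staining to estimate viability or growth.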

CNS cancer cell lines = assay: NCI anticancer screen, SRB assay, panel summary; conditions: CNS panel
Outline: as §1

Colon cancer cell lines = assay: NCI anticancer screen, SRB assay, panel summary; conditions: Colon panel
Outline: as §1

[2] = system: Ovarian cancer cell lines; assay: NCI anticancer screen, SRB assay, panel summary; conditions: Ovarian panel
Outline: as §1

Renal cancer cell lines = assay: NCI anticancer screen, SRB assay, panel summary
Outline: as §1

Breast cancer cell lines = assay: NCI anticancer screen, SRB assay, panel summary
Outline: as §1

[3] = system: Non-small cell lung cancer cell lines; assay: NCI anticancer screen, SRB assay, panel summary
Outline: as §1

[4] = system: Leukemia cancer cell lines; assay: NCI anticancer screen, SRB assay, panel summary; conditions: Leukemia panel
Outline: as §1

[5] = system: Prostate cancer cell lines; assay: NCI anticancer screen, SRB assay, panel summary
Outline: as §1

UACC-62 (melanoma) = assay: NCI anticancer screen, SRB assay, 48 h
Outline: as §1

SF-295 (CNS) = assay: NCI anticancer screen, SRB assay, 48 h
Outline: as §1

HCT-116 (colon) = assay: NCI anticancer screen, SRB assay, 48 h
Outline: as §1

RXF 393 (renal) = assay: NCI anticancer screen, SRB assay, 48 h
Outline: as §1

[6] = system: NCI-H460 (non-small cell lung); assay: NCI anticancer screen, SRB assay, 48 h
Outline: as §1

SK-MEL-28 (melanoma) = assay: NCI anticancer screen, SRB assay, 48 h
Outline: as §1

BT-549 (breast) = assay: NCI anticancer screen, SRB assay, 48 h
Outline: as §1

OVCAR-3 (ovarian) = assay: NCI anticancer screen, SRB assay, 48 h
Outline: as §1

M14 (melanoma) = assay: NCI anticancer screen, SRB assay, 48 h
Outline: as §1

SK-OV-3 (ovarian) = assay: NCI anticancer screen, SRB assay, 48 h
Outline: as §1

UO-31 (renal) = assay: NCI anticancer screen, SRB assay, 48 h
Outline: as §1

SK-MEL-2 (melanoma) = assay: NCI anticancer screen, SRB assay, 48 h
Outline: as §1

TD-47D (breast) = assay: NCI anticancer screen, SRB assay, 48 h
Outline: as §1

[7] = system: NCI-H522 (non-small cell lung); assay: NCI anticancer screen, SRB assay, 48 h
Outline: as §1

SF-539 (CNS) = assay: NCI anticancer screen, SRB assay, 48 h
Outline: as §1

SF-268 (CNS) = assay: NCI anticancer screen, SRB assay, 48 h
Outline: as §1

SW-620 (colon) = assay: NCI anticancer screen, SRB assay, 48 h
Outline: as §1

[8] = log of concentration in mol/L causing 50% inhibition of net cell growth
[9] = log of concentration leading to 50% net cell death
[10] = log of concentration resulting in total inhibition of net cell growth
[11] = 48 h exposure, SRB, read-out: GI50

COc1ccc(-c2cn(-c3cccc(C(=O)/C=C/c4cc(OC)c(OC)c(OC)c4)c3)c(=O)[nH]2)cc1 [5b, 4-(4-methoxyphenyl)-1-3-[(E)-3-(3,4,5-trimethoxyphenyl)-2-propenoyl]phenyl-2,3-dihydro-1H-2-imidazolone]
mean graph midpoint (MG_MID) of Log10 GI50 [1, 8]: 5.72 | mean graph midpoint (MG_MID) of Log10 LC50 [1, 9]: 4.58 | mean graph midpoint (MG_MID) of Log10 TGI [1, 10]: 5.25 | mean graph midpoint (MG_MID) of Log10 GI50 (CNS cancer cell lines; [8]): 5.54 | mean graph midpoint (MG_MID) of Log10 LC50 (CNS cancer cell lines; [9]): 4.55 | mean graph midpoint (MG_MID) of Log10 TGI (CNS cancer cell lines; [10]): 5.01 | mean graph midpoint (MG_MID) of Log10 GI50 (Colon cancer cell lines; [8]): 5.95 | mean graph midpoint (MG_MID) of Log10 LC50 (Colon cancer cell lines; [9]): 5.13 | mean graph midpoint (MG_MID) of Log10 TGI (Colon cancer cell lines; [10]): 5.58 | mean graph midpoint (MG_MID) of Log10 GI50 [2, 8]: 5.58 | mean graph midpoint (MG_MID) of Log10 LC50 [2, 9]: 4.41 | mean graph midpoint (MG_MID) of Log10 TGI [2, 10]: 4.83 | mean graph midpoint (MG_MID) of Log10 LC50 (Renal cancer cell lines): 4.46 | mean graph midpoint (MG_MID) of Log10 GI50 (Renal cancer cell lines; Renal panel, log of concentration in mol/L causing 50% inhibition of net cell growth): 5.60 | mean graph midpoint (MG_MID) of Log10 TGI (Renal cancer cell lines; Renal panel, log of concentration resulting in total inhibition of net cell growth): 5.12 | mean graph midpoint (MG_MID) of Log10 LC50 (Breast cancer cell lines): 4.91 | mean graph midpoint (MG_MID) of Log10 GI50 (Breast cancer cell lines; Breast panel, log of concentration in mol/L causing 50% inhibition of net cell growth): 5.61 | mean graph midpoint (MG_MID) of Log10 TGI (Breast cancer cell lines; Breast panel, log of concentration resulting in total inhibition of net cell growth): 4.86 | mean graph midpoint (MG_MID) of Log10 LC50 [3]: 4.82 | mean graph midpoint (MG_MID) of Log10 GI50 ([3]; Non-small cell lung panel, log of concentration in mol/L causing 50% inhibition of net cell growth): 5.30 | mean graph midpoint (MG_MID) of Log10 TGI ([3]; Non-small cell lung panel, log of concentration resulting in total inhibition of net cell growth): 4.66 | mean graph midpoint (MG_MID) of Log10 GI50 [4, 8]: 5.96 | mean graph midpoint (MG_MID) of Log10 TGI [4, 10]: 4.00 | mean graph midpoint (MG_MID) of Log10 GI50 [5, 8]: 5.21 | mean graph midpoint (MG_MID) of Log10 TGI [5, 10]: 4.41 | pGI50 (-log of molar concentration causing 50% inhibition of net cell growth) (UACC-62 (melanoma)): 5.69 | GI50 (UACC-62 (melanoma); [11]): 2060 nM | pGI50 (-log of molar concentration causing 50% inhibition of net cell growth) (SF-295 (CNS)): 5.31 | GI50 (SF-295 (CNS); [11]): 4950 nM | pGI50 (-log of molar concentration causing 50% inhibition of net cell growth) (HCT-116 (colon)): 6.43 | GI50 (HCT-116 (colon); [11]): 370 nM | GI50 (RXF 393 (renal); RXF 393, 48 h exposure, SRB, read-out: GI50): 1920 nM | pGI50 (-log of molar concentration causing 50% inhibition of net cell growth) (RXF 393 (renal); RXF-393): 5.72 | pGI50 (-log of molar concentration causing 50% inhibition of net cell growth) [6]: 5.81 | GI50 [6, 11]: 1560 nM | pGI50 (-log of molar concentration causing 50% inhibition of net cell growth) (SK-MEL-28 (melanoma)): 5.69 | GI50 (SK-MEL-28 (melanoma); [11]): 2030 nM | pGI50 (-log of molar concentration causing 50% inhibition of net cell growth) (BT-549 (breast)): 5.59 | GI50 (BT-549 (breast); [11]): 2590 nM | pGI50 (-log of molar concentration causing 50% inhibition of net cell growth) (OVCAR-3 (ovarian)): 5.75 | GI50 (OVCAR-3 (ovarian); [11]): 1780 nM | pGI50 (-log of molar concentration causing 50% inhibition of net cell growth) (M14 (melanoma)): 5.73 | GI50 (M14 (melanoma); [11]): 1850 nM | pGI50 (-log of molar concentration causing 50% inhibition of net cell growth) (SK-OV-3 (ovarian)): 5.34 | GI50 (SK-OV-3 (ovarian); [11]): 4600 nM | pGI50 (-log of molar concentration causing 50% inhibition of net cell growth) (UO-31 (renal)): 5.72 | GI50 (UO-31 (renal); [11]): 1910 nM | pGI50 (-log of molar concentration causing 50% inhibition of net cell growth) (SK-MEL-2 (melanoma)): 5.58 | GI50 (SK-MEL-2 (melanoma); [11]): 2630 nM | pGI50 (-log of molar concentration causing 50% inhibition of net cell growth) (TD-47D (breast)): 5.42 | GI50 (TD-47D (breast); [11]): 3840 nM | pGI50 (-log of molar concentration causing 50% inhibition of net cell growth) [7]: 5.73 | GI50 [7, 11]: 1850 nM | pGI50 (-log of molar concentration causing 50% inhibition of net cell growth) (SF-539 (CNS)): 5.70 | GI50 (SF-539 (CNS); [11]): 2000 nM | pGI50 (-log of molar concentration causing 50% inhibition of net cell growth) (SF-268 (CNS)): 5.49 | GI50 (SF-268 (CNS); [11]): 3210 nM | pGI50 (-log of molar concentration causing 50% inhibition of net cell growth) (SW-620 (colon)): 6.35 | GI50 (SW-620 (colon); [11]): 450 nM
